Laboratory results from patent publication US9216173B2, “2-Pyridyl carboxamide-containing spleen tyrosine kinase (SYK) inhibitors” (Merck Sharp & Dohme Corp., priority 2011, dated 2015).
pIC50: −log10 of the molar value.

Each compound was assayed against T1, recombinant human GST-SYK (Homo sapiens, UniProt P43405) (assay: Homogeneous Time-Resolved Fluorescence (HTRF) assay for the recombinant human Syk enzyme). Conditions: GST-hSYK 5 pM, ATP 25 μM, 10-dose titration 10 μM to 0.508 nM; read-out: IC50.
T1 construct: purchased Carna Biosciences 08-176
Assay type: biochemical
Procedure: Homogeneous Time-Resolved Fluorescence (HTRF) Assay for the Recombinant Human Syk Enzyme
A recombinant GST-hSYK fusion protein was used to measure potency of compounds to inhibit human Syk activity. […] Final volume of the reaction was 10 μL. Phosphorylation of the peptide was allowed to proceed for 45 minutes at room temperature. To quench the reaction and detect the phosphorylated product, 2 nM of a Europium-anti-phosphotyrosine antibody (Perkin Elmer #AD0161) and 70 nM SA-APC (Perkin-Elmer #CR130-100) were added together in 15 mM Tris pH 7.5, 40 mM EDTA, 0.01% tween 20. Final volume of the quenching solution was 10 μL. The resulting HTRF signal was measured after 30 minutes on an EnVision (Perkin-Elmer) reader using a time-resolved fluorescence protocol.

| Structure (SMILES) | pIC50 |
| --- | --- |
| CCC(CN)Nc1cnc(C(N)=O)c(Nc2ccn(C)n2)c1 (centres unmarked) [Example 1.95, 5-{[1-(aminomethyl)propyl]amino}-3-[(1-methyl-1H-pyrazol-3-yl)amino]pyridine-2-carboxamide] | 6.92 |
| Cc1ccc(Nc2cc(N[C@@H]3CCCC[C@@H]3N)cnc2C(N)=O)nc1C [Example 1.6, 5-{[(1R,2S)-2-aminocyclohexyl]amino}-3-[(5,6-dimethylpyridin-2-yl)amino)pyridine-2-carboxamide] | 9.28 |
| Cc1cc(C)nc(Nc2cc(NC(C(N)=O)C(C)C)cnc2C(N)=O)c1 (centres unmarked) [Example 1.41, 5-[(1-carbamoyl-2-methylpropyl)amino]-3-[(4,6-dimethylpyridin-2-yl)amino]pyridine-2-carboxamide] | 7.92 |

Same assay, conditions: GST-hSYK 5 pM, ATP 25 μM, 10-dose titration 10 μM to 0.508 nM; read-out: rhSYK Activity (IC50 rating)

| Structure (SMILES) | pIC50 |
| --- | --- |
| Cc1nc(Nc2cc(N[C@@H]3CCCC[C@@H]3N)cnc2C(N)=O)ccc1-c1ccc(OC(F)F)cc1 [Example 3.10, 5-{[(1R,2S)-2-aminocyclohexyl]amino}-3-({5-[4-(difluoromethoxy)phenyl]-6-methylpyridin-2-yl}amino)pyridine-2-carboxamide] | > 8.00 |
| NC(=O)c1ncc(N[C@H]2[C@@H](N)CCCC2(F)F)cc1Nc1ccn(-c2ccc(F)cc2)n1 [Example 1.87, 5-{[(1S,6S)-6-amino-2,2-difluorocyclohexyl]amino}-3-{[1-(4-fluorophenyl)-1H-pyrazol-3-yl]amino}pyridine-2-carboxamide] | > 8.00 |
| NC(=O)c1ncc(N[C@@H]2CCCC[C@@H]2N)cc1Nc1cccc(-c2ccc3c(c2)CCO3)n1 [Example 1.15, 5-{[(1R,2S)-2-aminocyclohexyl]amino}-3-{[6-(2,3-dihydro-1-benzofuran-5-yl)pyridin-2-yl]amino}pyridine-2-carboxamide] | > 8.00 |
| Cn1ccc(Nc2cc(N[C@@H]3CCCC[C@@H]3N)cnc2C(N)=O)n1 [Example 1.33, 5-{[(1R,2S)-2-aminocyclohexyl]amino}-3-[(1-methyl-1H-pyrazol-3-yl)amino]pyridine-2-carboxamide] | 7.00 to 8.00 |
| CCc1cccc(Nc2cc(NC[C@@H](N)COC)cnc2C(N)=O)n1 [Example 1.100, 5-{[(2R)-2-amino-3-methoxypropyl]amino}-3-[(6-ethylpyridin-2-yl)amino]pyridine-2-carboxamide] | > 8.00 |
| Cc1nc(Nc2cc(N[C@@H]3CCCC[C@@H]3N)cnc2C(N)=O)ccc1-c1ccc(C(O)C(F)F)cc1 (stereo partly drawn) [Example 3.8, 5-{[(1R,2S)-2-aminocyclohexyl]amino}-3-({5-[4-(2,2-difluoro-1-hydroxyethyl)phenyl]-6-methylpyridin-2-yl}amino)pyridine-2-carboxamide] | > 8.00 |
| CCC(CN)Nc1cnc(C(N)=O)c(Nc2ccn(C)n2)c1 (centres unmarked) [Example 1.95, 5-{[1-(aminomethyl)propyl]amino}-3-[(1-methyl-1H-pyrazol-3-yl)amino]pyridine-2-carboxamide] | 6.00 to 7.00 |
| Cc1cc(C)nc(Nc2cc(NC(C)C(N)=O)cnc2C(N)=O)c1 (centres unmarked) [Example 1.39, 5-[(2-amino-1-methyl-2-oxoethyl)amino]-3-[(4,6-dimethylpyridin-2-yl)amino]pyridine-2-carboxamide] | 7.00 to 8.00 |
| Cc1nc(Nc2cc(N[C@@H]3CCCC[C@@H]3N)cnc2C(N)=O)ccc1-c1ccc2c(cnn2C)c1 [Example 3.18, 5-{[(1R,2S)-2-aminocyclohexyl]amino}-3-{[6-methyl-5-(1-methyl-1H-indazol-5-yl)pyridin-2-yl]amino}pyridine-2-carboxamide] | > 8.00 |
| Cc1ccc(Nc2cc(N[C@@H]3CCCC[C@@H]3N)cnc2C(N)=O)nc1C [Example 1.6, 5-{[(1R,2S)-2-aminocyclohexyl]amino}-3-[(5,6-dimethylpyridin-2-yl)amino)pyridine-2-carboxamide] | > 8.00 |
| NC(=O)c1ncc(N[C@@H]2CCCC[C@@H]2N)cc1Nc1ccn(-c2ccccc2)n1 [Example 1.14, 5-{[(1R,2S)-2-aminocyclohexyl]amino}-3-[(1-phenyl-1H-pyrazol-3-yl)amino]pyridine-2-carboxamide] | > 8.00 |
| CC(C)c1cccc(Nc2cc(N[C@@H]3CCCC[C@@H]3N)cnc2C(N)=O)n1 [Example 1.54, 5-{[(1R,2S)-2-aminocyclohexyl]amino}-3-{[6-(1-methylethyl)pyridin-2-yl]amino}pyridine-2-carboxamide] | > 8.00 |
| COC[C@H](N)CNc1cnc(C(N)=O)c(Nc2ccn(-c3ccc(F)cc3)n2)c1 [Example 1.99, 5-{[(2R)-2-amino-3-methoxypropyl]amino}-3-{[1-(4-fluorophenyl)-1H-pyrazol-3-yl]amino}pyridine-2-carboxamide] | > 8.00 |
| COc1ccc(-n2ccc(Nc3cc(N[C@@H]4CCCC[C@@H]4N)cnc3C(N)=O)n2)cc1 [Example 1.72, 5-{[(1R,2S)-2-aminocyclohexyl]amino}-3-{[1-(4-methoxyphenyl)-1H-pyrazol-3-yl]amino}pyridine-2-carboxamide] | > 8.00 |
| Cc1cc(C)nc(Nc2cc(NCC(N)Cc3ccccc3)cnc2C(N)=O)c1 (centres unmarked) [Example 2.12, 5-[(2-amino-3-phenylpropyl)amino]-3-[(4,6-dimethylpyridin-2-yl)amino]pyridine-2-carboxamide] | 7.00 to 8.00 |
| Cc1nc(Nc2cc(N[C@@H]3CCCC[C@@H]3N)cnc2C(N)=O)ccc1OC(C)C [Example 5.1, 5-{[(1R,1S)-2-aminocyclohexyl]amino}-3-{[6-methyl-5-(propan-2-yloxy)pyridin-2-yl]amino}pyridine-2-carboxamide] | > 8.00 |

| Structure (SMILES) | pIC50 |
| --- | --- |
| C[C@H](N)CNc1cnc(C(N)=O)c(Nc2cccc(C(F)(F)F)n2)c1 [Example 1.104, 5-{[(2S)-2-aminopropyl]amino}-3-{[6-(trifluoromethyl)pyridin-2-yl]amino}pyridine-2-carboxamide] | > 8.00 |
| NC(=O)c1ncc(N[C@@H]2CCCC[C@@H]2N)cc1Nc1ccc2nccn2n1 [Example 1.17, 5-{[(1R,2S)-2-aminocyclohexyl]amino}-3-(imidazo[1,2-b]pyridazin-6-ylamino)pyridine-2-carboxamide] | > 8.00 |
| Cc1nc(Nc2cc(N[C@@H]3CCCC[C@@H]3N)cnc2C(N)=O)ccc1-c1ccc(-c2ncco2)cc1 [Example 3.30, 5-{[(1R,2S)-2-aminocyclohexyl]amino}-3-({6-methyl-5-[4-(1,3-oxazol-2-yl)phenyl]pyridin-2-yl}amino)pyridine-2-carboxamide] | > 8.00 |
| Cc1nc(Nc2cc(N[C@@H]3CCCC[C@@H]3N)cnc2C(N)=O)ccc1Br [Example 1.31, 5-{[(1R,2S)-2-aminocyclohexyl]amino}-3-[(5-bromo-6-methylpyridin-2-yl)amino]pyridine-2-carboxamide] | > 8.00 |
| Cc1nc(Nc2cc(N[C@@H]3CCCC[C@@H]3N)cnc2C(N)=O)ccc1-c1cnn(C)c1 [Example 1.11, 5-{[(1R,2S)-2-aminocyclohexyl]amino}-3-{[6-methyl-5-(1-methyl-1H-pyrazol-4-yl)pyridin-2-yl]amino}pyridine-2-carboxamide] | > 8.00 |
| Cc1cc(-c2ccnn2C)cc(Nc2cc(N[C@@H]3CCCC[C@@H]3N)cnc2C(N)=O)n1 [Example 4.4, 5-{[(1R,2S)-2-aminocyclohexyl]amino}-3-{[6-methyl-4-(1-methyl-1H-pyrazol-5-yl)pyridin-2-yl]amino}pyridine-2-carboxamide] | > 8.00 |
| Cc1nc(Nc2cc(N[C@@H]3CCCC[C@@H]3N)cnc2C(N)=O)ccc1-c1ccc2c(c1)n(C)c(=O)n2C [Example 3.31, 5-{[(1R,2S)-2-aminocyclohexyl]amino}-3-{[5-(1,3-dimethyl-2-oxo-2,3-dihydro-1H-benzimidazol-5-yl)-6-methylpyridin-2-yl]amino}pyridine-2-carboxamide] | > 8.00 |
| Cc1ccc(-n2nc(Nc3cc(N[C@@H]4CCCC[C@@H]4N)cnc3C(N)=O)cc2C)cc1 [Example 1.79, 5-{[(1R,2S)-2-aminocyclohexyl]amino}-3-{[5-methyl-1-(4-methylphenyl)-1H-pyrazol-3-yl]amino}pyridine-2-carboxamide] | > 8.00 |
| Cc1nc(Nc2cc(N[C@@H]3CCCC[C@@H]3N)cnc2C(N)=O)ccc1C(N)=O [Example 7, 5-{[(1R,2S)-2-aminocyclohexyl]amino}-3-[(5-carbamoyl-6-methylpyridin-2-yl)amino]pyridine-2-carboxamide] | > 8.00 |
| CCn1ccc(Nc2cc(N[C@@H]3CCCC[C@@H]3N)cnc2C(N)=O)n1 [Example 1.49, 5-{[(1R,2S)-2-aminocyclohexyl]amino}-3-[(1-ethyl-1H-pyrazol-3-yl)amino]pyridine-2-carboxamide] | 7.00 to 8.00 |
| Cn1ncc(Nc2cc(N[C@@H]3CCCC[C@@H]3N)cnc2C(N)=O)n1 [Example 1.62, 5-{[(1R,2S)-2-aminocyclohexyl]amino}-3-[(2-methyl-2H-1,2,3-triazol-4-yl)amino]pyridine-2-carboxamide] | 7.00 to 8.00 |
| Cc1nc(Nc2cc(N[C@@H]3CCCC[C@@H]3N)cnc2C(N)=O)ccc1-c1ccc(CO)cc1 [Example 3.7, 5-{[(1R,2S)-2-aminocyclohexyl]amino}-3-({5-[4-(hydroxymethyl)phenyl]-6-methylpyridin-2-yl}amino)pyridine-2-carboxamide] | > 8.00 |
| NC(=O)c1ncc(N[C@@H]2CCCC[C@@H]2N)cc1Nc1cnn(-c2ccccc2)n1 [Example 1.51, 5-{[(1R,2S)-2-aminocyclohexyl]amino}-3-[(2-phenyl-2H-1,2,3-triazol-4-yl)amino]pyridine-2-carboxamide] | > 8.00 |
| Cc1cc(C)nc(Nc2cc(NC(C(N)=O)C(C)C)cnc2C(N)=O)c1 (centres unmarked) [Example 1.41, 5-[(1-carbamoyl-2-methylpropyl)amino]-3-[(4,6-dimethylpyridin-2-yl)amino]pyridine-2-carboxamide] | 7.00 to 8.00 |
| Cc1ccc(-n2ccc(Nc3cc(N[C@@H]4CCCC[C@@H]4N)cnc3C(N)=O)n2)cc1 [Example 1.64, 5-{[(1R,2S)-2-aminocyclohexyl]amino}-3-{[1-(4-methylphenyl)-1H-pyrazol-3-yl]amino}pyridine-2-carboxamide] | > 8.00 |
| CCOCC(N)CNc1cnc(C(N)=O)c(Nc2cc(C)cc(C)n2)c1 (centres unmarked) [Example 1.70, 5-[(2-amino-3-ethoxypropyl)amino]-3-[(4,6-dimethylpyridin-2-yl)amino]pyridine-2-carboxamide] | > 8.00 |
